Some test systems named below: NCI-H23 lung; MDA-MB-435; HCC-2998 colon; SF-268 CNS; ACHN renal; SF-539 CNS; BT-549 breast; KM12 colon; HT29 colon; OVCAR-4 ovarian.
Assay in all cases: growth of human tumour cells (NCI), 48 h

In PubChem BioAssay (NCI) one finds GI50 and TGI data, which are given here for nine compounds.

Molecules are shown by their SMILES. Values joined by “and” are separate entries in the source; they are usually repeats but may differ in a detail not shown here. Equal values may be shown once.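 Growth conditions: 96-well plates. Treatment: test compound, 48 hours, 5 concentrations. Analysis: linear interpolation between bracketing concentrations; unreached endpoints set to highest concentration. GI50: concentration for 50% inhibition of growth. TGI: total growth inhibition.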

On to `COc1ccc(-c2cc(-c3nnc(SCC(=O)Nc4ccc(C(C)=O)cc4)o3)c3ccccc3n2)cc1`, for which the GI50 in the assay on NCI-H23 lung is 25.4 µM; with MDA-MB-435 it was more than 100 µM; in the assay on HCC-2998 colon, more than 100 µM; with SF-268 CNS it was 29.1 µM; in the assay on ACHN renal, 5.64 µM; in the assay with SF-539 CNS, 33.9 µM. The figures for the GI50 in the assay with BT-549 breast, in the assay on KM12 colon and in the assay with HT29 colon were 8.77 µM, more than 100 µM and more than 100 µM, respectively. For the same compound, the TGI in the assay on NCI-H23 lung was more than 100 µM; in the assay with MDA-MB-435, more than 100 µM; with HCC-2998 colon, more than 100 µM; in the assay on SF-268 CNS, more than 100 µM; with ACHN renal, 31.7 µM; in the assay on SF-539 CNS it was more than 100 µM. Besides, the TGI with BT-549 breast, with KM12 colon and in the assay on HT29 colon was more than 100 µM in each case.

As for `CN(C)S(=O)(=O)c1ccc(Nc2ccc(O)c3c2C(=O)c2c([N+](=O)[O-])ccc(O)c2C3=O)cc1`, the TGI in the assay on NCI-H23 lung, in the assay with MDA-MB-435, in the assay with SF-268 CNS, in the assay with OVCAR-4 ovarian, with ACHN renal and in the assay with BT-549 breast was more than 100 µM in each case. The TGI with KM12 colon and in the assay with HT29 colon was more than 100 µM each time.

In the case of `COC(=O)[C@]12CC=C3O[C@@H]4OC5(CCCCC5)O[C@@H]4[C@H]3C1C(=O)C=CC2=O` (stereo partly specified), the TGI in the assay with NCI-H23 lung stood at 33.6 µM; in the assay with HCC-2998 colon it was 31.4 µM; in the assay with SF-268 CNS it was 30 µM; in the assay with OVCAR-4 ovarian it was 31.4 µM; in the assay on ACHN renal it was 32.6 µM; with SF-539 CNS it was 34.8 µM. Also, the TGI with BT-549 breast was 34.5 µM; in the assay with KM12 colon it was 20.7 µM; in the assay on HT29 colon, 34.6 µM.

For the compound `Cc1ccc(Oc2nc3ccccc3cc2-c2nnc(Cn3c(COc4ccccc4)nc4ccccc43)o2)cc1`, the GI50 in the assay on NCI-H23 lung is 4.66 µM; in the assay with MDA-MB-435, 3.06 µM; in the assay with HCC-2998 colon, 4.4 µM; in the assay on SF-268 CNS, 3.41 µM; with OVCAR-4 ovarian it was 2.36 µM; in the assay with BT-549 breast, 1.77 µM. Besides, the results for the GI50 in the assay with KM12 colon and in the assay on HT29 colon were 2.85 µM and 2.02 µM, respectively. Besides, the TGI was 20.7 µM in the assay with NCI-H23 lung; 11.9 µM in the assay on MDA-MB-435; 15.3 µM in the assay on HCC-2998 colon; 15.9 µM with SF-268 CNS; 10.2 µM with OVCAR-4 ovarian; 4.06 µM in the assay on BT-549 breast. The TGI with KM12 colon turned out to be 11.8 µM; with HT29 colon, 4.43 µM.

Turning to `COc1ccc(-n2c3c(c4c(CN(C)C)c(O)c(C)cc42)CCc2ccccc2C3=O)cc1`, the GI50 in the assay with NCI-H23 lung was 14 µM; in the assay on MDA-MB-435 it was 14 µM; with HCC-2998 colon, 23.4 µM; in the assay with SF-268 CNS it was 61.9 µM; in the assay on ACHN renal, 47 µM; in the assay on SF-539 CNS, 26.9 µM. Further, the GI50 in the assay with BT-549 breast was 14.4 µM; in the assay on KM12 colon, 21.1 µM; in the assay on HT29 colon, more than 100 µM. In addition, the TGI with NCI-H23 lung is 69 µM; in the assay on MDA-MB-435 it was 40.4 µM; with HCC-2998 colon, 67.8 µM; with SF-268 CNS, more than 100 µM; in the assay on ACHN renal, more than 100 µM; in the assay with SF-539 CNS, more than 100 µM. Moreover, the TGI with BT-549 breast was more than 100 µM; in the assay on KM12 colon, 63.9 µM; in the assay with HT29 colon, more than 100 µM.

`CCOC(=O)C1=C(c2ccccc2)N(c2ccc(OC)cc2)[C@]2(C#N)C(O)=C(Cl)C(Cl)=C(O)[C@]12C#N`: the GI50 with NCI-H23 lung is 17.7 µM; in the assay on MDA-MB-435 it was 18.8 µM; with SF-268 CNS it was 24 µM; in the assay on OVCAR-4 ovarian, 46.3 µM; in the assay on ACHN renal, 19.7 µM; with SF-539 CNS, 24.5 µM. The figures for the GI50 with BT-549 breast, in the assay on KM12 colon and in the assay with HT29 colon were 24.2 µM, 18.3 µM and 34.8 µM, respectively. Further, the TGI was 33.1 µM in the assay on NCI-H23 lung; 37.1 µM with MDA-MB-435; 52.2 µM in the assay with SF-268 CNS; more than 100 µM in the assay with OVCAR-4 ovarian; 42.1 µM in the assay with ACHN renal; 56.3 µM in the assay with SF-539 CNS. The TGI in the assay on BT-549 breast was 56.4 µM; with KM12 colon, 36.5 µM; with HT29 colon, more than 100 µM.

With `COc1cc2c3c(n(CCCNCCNCCCN)c(=O)c2cc1OC)-c1cc2c(cc1C3=O)OCO2`, the GI50 is 2.73 µM in the assay with NCI-H23 lung; 3.45 µM with MDA-MB-435; 1.99 µM in the assay with SF-268 CNS; 4.64 µM in the assay with OVCAR-4 ovarian; 0.18 µM with ACHN renal; 8.55 µM in the assay on SF-539 CNS. Moreover, the GI50 was 15.1 µM with BT-549 breast, 2.61 µM with KM12 colon and 2.03 µM in the assay on HT29 colon. In addition, the TGI in the assay with NCI-H23 lung was 10.9 µM; in the assay with MDA-MB-435, 15.6 µM; in the assay with SF-268 CNS, 11.4 µM; with OVCAR-4 ovarian it was 19.9 µM; with ACHN renal, 2.6 µM; with SF-539 CNS it was 23.6 µM. Further, the TGI with BT-549 breast was found to be 35.2 µM; in the assay with KM12 colon, 14.5 µM; in the assay on HT29 colon it was 10.2 µM.

`COc1cc2c3c(n(C)c(=O)c2cc1OC)-c1cc2c(cc1/C3=C/[C@H](N)CCCCN)OCO2`: the GI50 was 2.52 µM with NCI-H23 lung; 0.293 µM in the assay with MDA-MB-435; 0.315 µM in the assay on SF-268 CNS; 2.27 µM in the assay on OVCAR-4 ovarian; 0.637 µM in the assay on ACHN renal; 0.742 µM in the assay with SF-539 CNS. For the same compound, the GI50 with KM12 colon was 2.07 µM; in the assay with HT29 colon it was 1.65 µM. In addition, the TGI in the assay on NCI-H23 lung is 21.9 µM; with MDA-MB-435 it was 4.69 µM; in the assay with SF-268 CNS, 3.97 µM; in the assay with OVCAR-4 ovarian it was 7.92 µM; in the assay with ACHN renal, 3.16 µM; with SF-539 CNS, 4.62 µM. In addition, the TGI with BT-549 breast was 2.57 µM; in the assay with KM12 colon it was more than 58.5 µM; in the assay on HT29 colon, more than 100 µM.

With `COc1ccc(-c2nc3sc4c(c3c(=O)[nH]2)CCCC4)c2ccccc12`, the GI50 is 0.57 µM with NCI-H23 lung; 2.23 µM in the assay with OVCAR-4 ovarian; 0.755 µM in the assay on ACHN renal; 0.211 µM and 0.0213 µM with SF-539 CNS. Further, the TGI was 79.1 µM in the assay with HCC-2998 colon; more than 100 µM with SF-268 CNS; 0.544 µM and 0.0746 µM in the assay with SF-539 CNS; 6.08 µM and 3.47 µM in the assay with BT-549 breast; more than 100 µM with KM12 colon.
